Holding throughout (format): cell-based
For test [1], the system named is Trypanosoma brucei rhodesiense STIB900. Here is the method: This stock was isolated in 1982 from a human patient in Tanzania and after several mouse passages cloned and adapted to axenic culture conditions. Minimum Essential Medium (50 μl) supplemented with 25 mM HEPES, 1 g/l additional glucose, 1% MEM non-essential amino acids (100×), 0.2 mM 2-mercaptoethanol, 1 mM Na-pyruvate and 15% heat inactivated horse serum was added to each well of a 96-well microtiter plate. Serial drug dilutions of eleven 3-fold dilution steps covering a range from 100 to 0.002 μg/ml were prepared. Then 4×10^3 bloodstream forms of T. b. rhodesiense STIB 900 in 50 μl was added to each well and the plate incubated at 37° C. under a 5% CO2 atmosphere for 70 h. 10 μl Alamar Blue (resazurin, 12.5 mg in 100 ml double-distilled water) was then added to each well and incubation continued for a further 2-4 h. Then the plates were read with a Spectramax Gemini XS microplate fluorometer (Molecular Devices Cooperation, Sunnyvale, Calif., USA) using an excitation wave length of 536 nm and an emission wave length of 588 nm. The IC50 values were calculated by linear regression from the sigmoidal dose inhibition curves using SoftmaxPro software (Molecular Devices Cooperation, Sunnyvale, Calif., USA). Melarsoprol (Arsobal Sanofi-Aventis, received from WHO) is used as control.

Test [2] relates to T. cruzi Tulahuen strain C2C4. Nature of the test: microbe, parasite or virus in culture. The settings on record: for IC50: in L-6 cells, 96 h. As to the method:
Rat skeletal myoblasts (L-6 cells) were seeded in 96-well microtitre plates at 2000 cells/well in 100 μL RPMI 1640 medium with 10% FBS and 2 mM 1-glutamine. After 24 h the medium was removed and replaced by 100 μl per well containing 5000 trypomastigote forms of T. cruzi Tulahuen strain C2C4 containing the β-galactosidase (Lac Z) gene. After 48 h the medium was removed from the wells and replaced by 100 μl fresh medium with or without a serial drug dilution of eleven 3-fold dilution steps covering a range from 100 to 0.002 μg/ml. After 96 h of incubation the plates were inspected under an inverted microscope to assure growth of the controls and sterility. Then the substrate CPRG/Nonidet (50 μl) was added to all wells. A color reaction developed within 2-6 h and could be read photometrically at 540 nm. Data were analyzed with the graphic programme Softmax Pro (Molecular Devices), which calculated IC50 values by linear regression from the sigmoidal dose inhibition curves. Benznidazole is used as control (IC50 0.5+0.2 μg/ml).

The test system of test [3] is L. donovani strain MHOM/ET/67/L82 axenic amastigotes. As to the method: Amastigotes of L. donovani strain MHOM/ET/67/L82 were grown in axenic culture at 37° C. in SM medium^24 at pH 5.4 supplemented with 10% heat-inactivated fetal bovine serum under an atmosphere of 5% CO2 in air. One hundred microlitres of culture medium with 10^5 amastigotes from axenic culture with or without a serial drug dilution were seeded in 96-well microtitre plates. Serial drug dilutions of eleven 3-fold dilution steps covering a range from 90 to 0.002 μg/ml were prepared. After 70 h of incubation the plates were inspected under an inverted microscope to assure growth of the controls and sterile conditions. 10 μl of Alamar Blue (12.5 mg resazurin dissolved in 100 ml distilled water) were then added to each well and the plates incubated for another 2 h. Then the plates were read with a Spectramax Gemini XS microplate fluorometer (Molecular Devices Cooperation, Sunnyvale, Calif., USA) using an excitation wave length of 536 nm and an emission wave length of 588 nm. Data were analyzed using the software Softmax Pro (Molecular Devices Cooperation, Sunnyvale, Calif., USA). Decrease of fluorescence (=inhibition) was expressed as percentage of the fluorescence of control cultures and plotted against the drug concentrations. From the sigmoidal inhibition curves the IC50 values were calculated.

Test [4] relates to erythrocytic stages of P. falciparum. Here is the method:
In vitro activity against erythrocytic stages of P. falciparum was determined using a 3H-hypoxanthine incorporation assay using the drug sensitive NF54 strain (Schipol airport) or the chloroquine and pyrimethamine resistant K1 strain that originate from Thailand and the standard drug chloroquine (Sigma C6628). Compounds were dissolved in DMSO at 10 mg/ml and added to parasite cultures incubated in RPMI 1640 medium without hypoxanthine, supplemented with HEPES (5.94 g/l), NaHCO3 (2.1 g/1), neomycin (100 U/ml), Albumax® (5 g/l) and washed human red cells A^+ at 2.5% haematocrit (0.3% parasitaemia). Serial drug dilutions of eleven 3-fold dilution steps covering a range from 100 to 0.002 μg/ml were prepared. The 96-well plates were incubated in a humidified atmosphere at 37° C.; 4% CO2, 3% O2, 93% N2. After 48 h 50 μl of 3H-hypoxanthine (=0.5 μCi) was added to each well of the plate. The plates were incubated for a further 24 h under the same conditions. The plates were then harvested with a Betaplate™ cell harvester (Wallac, Zurich, Switzerland), and the red blood cells transferred onto a glass fibre filter then washed with distilled water. The dried filters were inserted into a plastic foil with 10 ml of scintillation fluid, and counted in a Betaplate™ liquid scintillation counter (Wallac, Zurich, Switzerland). IC50 values were calculated from sigmoidal inhibition curves by linear regression using Microsoft Excel. Chloroquine and artemisinin are used as control.

The test system of test [5] is Escherichia coli K12 W3110. Here is the method:
(§1) Species used in MIC assays included gram-negative Escherichia coli K12 W3110, Pseudomonas aeruginosa laboratory strain PAO2 and Serratia marcescens laboratory strain and gram-positive Staphylococcus aureus NCTC 6571 and Micrococcus luteus laboratory strain.
(§2) Bacterial cultures were prepared by streaking the bacterial strains on to agar plates with an inoculation loop and incubating overnight at 37° C. A single colony was then selected and placed in 5 mL of Iso-Sensitest broth using an inoculation loop and incubated at 37° C. with shaking overnight.
(§3) MIC values were attained according to the protocol described by J. M. Andrews et al. [J. M. Andrews, J. Antimicrob. Chemother., 2001, 48, 5-16] and were conducted in 96-well microtitre plates in triplicate. 10-50 μL of each overnight culture was inoculated into 1.2 mL of Iso-Sensitest broth and grown at 37° C. with shaking. […] The inoculum was diluted ten-fold with Iso-Sensitest broth before use (to ˜10^3 cfu/spot). Peptide solutions were initially dissolved in DMSO (5 mg mL^−1) and then diluted further with Iso-Sensitest broth to achieve a concentration range of 4 mgL^−1 to 512 mgL^−1 using 2-fold serial dilutions. Samples were vortexed between dilutions where necessary to aid dissolution. 50 μL of inoculum and 50 μL of peptide solution were added to each test well to achieve a final concentration range of 2 mgL^−1 to 256 mgL^−1. Separate dilutions of ampicillin and DMSO were made up in a similar manner to act as a positive antibacterial control and a +DMSO control, respectively. 50 μL of inoculum and 50 μL of Iso-Sensitest broth were used as a positive control and 100 μL of inoculum was used as a negative control. Positive and negatives controls were conducted multiple times in parallel per plate. […] Quantitative data were attained as A650nm values using a BioTek® Synergy™ H4 Hybrid Multi-Mode Microplate Reader.

The subject of test [6] is Pseudomonas aeruginosa laboratory strain PAO2. Here is the method: as §1, §2, §3
Test [7] has as its system Serratia marcescens laboratory strain. The settings on record: 16 h. As to the method: as §1, §2, §3
Test [8] relates to Staphylococcus aureus NCTC 6571. Here is the method: as §1, §2, §3
The test system of test [9] is S. aureus (NCTC 6571) biofilm. Nature of the test: Single species biofilm treatment, crystal violet assay. The settings on record: 100 μM peptoid, 24 hours, FIG. 17B. Here is the method: C. albicans (NCTC 3179) was subcultured aerobically on Sabouraud agar plates and propagated in yeast peptone dextrose broth. E. coli (ATCC 29522) and S. aureus (NCTC 6571) were grown on blood agar plates and propagated in brain heart infusion (BHI) broth.
Overnight cultures of C. albicans were washed and resuspended in a modified RPMI-1640 (Sigma-Aldrich, St Louis, USA) medium to yield an inoculum of 1.0×10^6 cells/ml. Overnight cultures of S. aureus or E. coli were washed and resuspended in brain heart infusion broth (Oxoid, Basingstoke, UK) to yield an inoculum of 5.0×10^6 cells/ml. A total volume of 100 μl of each inoculum was added to microtitre plate wells (Thermo Fisher Scientific, Roskilde, Denmark). An initial biofilm was allowed to form for 4 hours. Wells were washed three times with 200 μl PBS to facilitate removal of planktonic cells and the biofilms were then treated with 100 μM of peptoids 1-4 in the appropriate broth. Plates were incubated for a further 24 hours to allow biofilm maturation. After removal of planktonic cells by washing, biofilms were quantified by the crystal violet assay or by PMA-qPCR.
Biofilm quantification by crystal violet assay Washed biofilms were fixed with 100 μl methanol for 10 minutes. Following removal of methanol, the wells were air dried and stained with crystal violet solution (Clin-Tech Ltd, Guildford, UK) for 20 minutes at room temperature. Excess stain was removed by washing, the plate was then air dried and bound crystal violet was re-solubilised in 16 μl 33% acetic acid prior to reading at 570 nm in a microtitre plate reader (Tecan GENios, Ziirich, Switzerland).

Setting [10] is: second figure of cell, 37° C., 16 h, Iso-Sensitest broth.

Read-outs that look alike come from different tables or passages of the source. *1 amine or outer side, *2 acyl side, *3 side chain or, on linkers, in order; H or OH if unused. Where a SMILES comes first, the peptide text is derived from it. [ ]: non-standard residue; d: D form. Gly(N-2-aminoethyl) = NCCNCC(=O)O; X1 = N=C(N)NCCN(CC(=O)[*:2])[*:1]; Nspe = C[C@H](NCC(=O)O)c1ccccc1; NhArg = N=C(N)NCCCCNCC(=O)O; Nlys = NCCCCNCC(=O)O

Consider `C[C@@H](c1ccccc1)N(CC(N)=O)C(=O)CN(C(=O)CN(CCN)C(=O)CN(C(=O)CN(C(=O)CN(CCNC(=N)N)C(=O)CN(C(=O)CN(C(=O)CN(CCN)C(=O)CN(C(=O)CN(C(=O)CNCCNC(=N)N)[C@@H](C)c1ccccc1)[C@@H](C)c1ccccc1)[C@@H](C)c1ccccc1)[C@@H](C)c1ccccc1)[C@@H](C)c1ccccc1)[C@@H](C)c1ccccc1)[C@@H](C)c1ccccc1` [Peptoid 6, [(NnArgNspeNspe)(NaeNspeNspe)]2] (H-[X1][Nspe][Nspe][Gly(N-2-aminoethyl)][Nspe][Nspe][X1][Nspe][Nspe][Gly(N-2-aminoethyl)][Nspe][Nspe]-NH2; N-terminus assumed), for which the IC50 in [1] (70 h) is 6.44 µM; in test [2] (read-out: IC50 T. cruzi) it was 6.58 µM; in test [3] (strain MHOM/ET/67/L82 axenic amastigotes, 70 h), 9.51 µM; in test [4] (strain (NF54 or K1) not given) it was 990 nM. For the same compound, the “active against T. brucei rhodesiense” value in test [1] (statement in words) is “active”. Further, the “active against T. cruzi” value in test [2] (statement in words) was “active”. Also, the “active against L. donovani” value in test [3] (statement in words) was “active”. The “active against P. falciparum” value in test [4] (statement in words) is recorded as “active”.
On to `C[C@@H](c1ccccc1)N(CC(N)=O)C(=O)CN(C(=O)CN(CCCCN)C(=O)CN(C(=O)CN(C(=O)CN(CCCCN)C(=O)CN(C(=O)CN(C(=O)CN(CCCCNC(=N)N)C(=O)CN(C(=O)CN(C(=O)CNCCCCN)[C@@H](C)c1ccccc1)[C@@H](C)c1ccccc1)[C@@H](C)c1ccccc1)[C@@H](C)c1ccccc1)[C@@H](C)c1ccccc1)[C@@H](C)c1ccccc1)[C@@H](C)c1ccccc1` [Peptoid 3, (NLys-Nspe-Nspe)(NhArg-Nspe-Nspe)(NLys-Nspe-Nspe)2] (H-[Nlys][Nspe][Nspe][NhArg][Nspe][Nspe][Nlys][Nspe][Nspe][Nlys][Nspe][Nspe]-NH2; N-terminus assumed), for which the “MIC E. coli” value is 17 µM in [5] (K12, 16 h) and 32 mgL^−1 in test [5] (setting [10]). For the same compound, the “MIC P. aeruginosa” value in test [6] (laboratory strain PAO2, 16 h) is 17 µM; in test [6] (setting [10]), 32 mgL^−1. Moreover, the “MIC S. marcescens” value in [7] (laboratory strain) amounted to 134 µM; in test [7] (second figure of cell, 37° C., Iso-Sensitest broth), 256 mgL^−1. For the same compound, the “MIC S. aureus” value in test [8] (NCTC 6571, 16 h) was determined as 17 µM; in test [8] (setting [10]), 32 mgL^−1. The “activity against the S. aureus biofilm” value in [9] was “strongest anti-bacterial activity”.
Take `O=C(Cn1ccnc1[N+](=O)[O-])NCc1ccccc1` [Benznidazole, reference compound]: the IC50 in test [2] (Trypanosoma cruzi, TULAHUEN, L6, control drug, read-out: IC50 T. cruzi, control) is 0.5 µg/mL.

For the origin of these results see US20180201647A1, “Peptoid” (The University of Durham, priority 2015, published 2018).
